# Measured values from PubChem BioAssay (NCI).
#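 Five concentrations, 48 hours, 96-well plates. TGI is the concentration that stops growth completely.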
# Key:
# Test in all cases: NCI anticancer screen, dose series, 48 h
# [1] = tested on: 786-0 renal
# [2] = tested on: A498 renal
# [3] = tested on: A549 NSCLC
# [4] = tested on: ACHN renal
# [5] = tested on: BT-549 breast
# [6] = tested on: CAKI-1 renal
# [7] = tested on: CCRF-CEM leukemia
# [8] = tested on: COLO 205 colon
# [9] = tested on: DU-145 prostate
# [10] = tested on: EKVX NSCLC
# [11] = tested on: HCC-2998 colon
# [12] = tested on: HCT-116 colon
# [13] = tested on: HCT-15 colon
# [14] = tested on: HL-60(TB) leukemia
# [15] = tested on: HOP-62 NSCLC
# [16] = tested on: HOP-92 NSCLC
# [17] = tested on: HS 578T breast
# [18] = tested on: HT29 colon
# [19] = tested on: IGROV1 ovarian
# [20] = tested on: K-562 leukemia
# [21] = tested on: KM12 colon
# [22] = tested on: LOX IMVI melanoma
# [23] = tested on: M14 melanoma
# [24] = tested on: MALME-3M melanoma
# [25] = tested on: MCF7 breast
# [26] = tested on: MDA-MB-231 breast
# [27] = tested on: MDA-MB-435
# [28] = tested on: MDA-N
# [29] = tested on: MOLT-4 leukemia
# [30] = tested on: NCI-H226 lung
# [31] = tested on: NCI-H23 lung
# [32] = tested on: NCI-H460 lung
# [33] = tested on: NCI-H522 lung
# [34] = tested on: NCI/ADR-RES ovarian
# [35] = tested on: OVCAR-3 ovarian
# [36] = tested on: OVCAR-4 ovarian
# [37] = tested on: OVCAR-5 ovarian
# [38] = tested on: OVCAR-8 ovarian
# [39] = tested on: PC-3 prostate
# [40] = tested on: RPMI-8226 leukemia
# [41] = tested on: RXF 393 renal
# [42] = tested on: SF-268 CNS
# [43] = tested on: SF-295 CNS
# [44] = tested on: SF-539 CNS
# [45] = tested on: SK-MEL-2 melanoma
# [46] = tested on: SK-MEL-28 melanoma
# [47] = tested on: SK-MEL-5 melanoma
# [48] = tested on: SK-OV-3 ovarian
# [49] = tested on: SN12C renal
# [50] = tested on: SNB-19 CNS
# [51] = tested on: SNB-75 CNS
# [52] = tested on: SW-620 colon
# [53] = tested on: T-47D breast
# [54] = tested on: TK-10 renal
# [55] = tested on: U251 CNS
# [56] = tested on: UACC-257 melanoma
# [57] = tested on: UACC-62 melanoma
# [58] = tested on: UO-31 renal
# [59] = tested on: SR leukemia
structure (smiles),measurement,setting,value
CC(C)=CCC/C(C)=C/CC/C(C)=C/CC/C(C)=C/C=C/C=C(\C)CC/C=C(\C)CC/C=C(\C)CCC=C(C)C,TGI,[1],52.3 µM
same,TGI,[2],> 100 µM
same,TGI,[3],> 100 µM
same,TGI,[4],53 µM
same,TGI,[5],> 100 µM
same,TGI,[6],32.1 µM
same,TGI,[7],59.8 µM
same,TGI,[8],> 100 µM
same,TGI,[9],> 100 µM
same,TGI,[10],> 93.3 µM
same,TGI,[11],> 100 µM
same,TGI,[12],> 100 µM
same,TGI,[13],> 100 µM
same,TGI,[14],4.96 µM
same,TGI,[15],> 100 µM
same,TGI,[16],> 75.5 µM
same,TGI,[17],> 100 µM
same,TGI,[18],> 100 µM
same,TGI,[19],36.4 µM
same,TGI,[20],> 31.6 µM
same,TGI,[21],63.3 µM
same,TGI,[22],49.9 µM
same,TGI,[23],> 100 µM
same,TGI,[24],> 100 µM
same,TGI,[25],> 100 µM
same,TGI,[26],> 100 µM
same,TGI,[27],> 100 µM
same,TGI,[28],> 100 µM
same,TGI,[29],49 µM
same,TGI,[30],> 100 µM
same,TGI,[31],> 100 µM
same,TGI,[32],> 58.4 µM
same,TGI,[33],31.4 µM
same,TGI,[34],> 82.9 µM
same,TGI,[35],> 100 µM
same,TGI,[36],> 100 µM
same,TGI,[37],> 100 µM
same,TGI,[38],> 88.2 µM
same,TGI,[39],> 100 µM
same,TGI,[40],> 100 µM
same,TGI,[41],> 100 µM
same,TGI,[42],> 81.4 µM
same,TGI,[43],> 100 µM
same,TGI,[44],> 100 µM
same,TGI,[45],> 100 µM
same,TGI,[46],> 100 µM
same,TGI,[47],> 79.9 µM
same,TGI,[48],> 100 µM
same,TGI,[49],> 55.3 µM
same,TGI,[50],> 100 µM
same,TGI,[51],> 100 µM
same,TGI,[52],> 100 µM
same,TGI,[53],> 100 µM
same,TGI,[54],> 74.3 µM
same,TGI,[55],> 100 µM
same,TGI,[56],> 100 µM
same,TGI,[57],> 100 µM
same,TGI,[58],54.8 µM
COCCOC(=O)c1c(C)n([O-])c2cc(Cl)c(Cl)cc2[n+]1=O,TGI,[1],85.1 µM
same,TGI,[2],61.9 µM
same,TGI,[3],35.7 µM
same,TGI,[4],29.3 µM
same,TGI,[5],67.1 µM
same,TGI,[6],45.4 µM
same,TGI,[7],64.7 µM
same,TGI,[8],25 µM
same,TGI,[9],25.8 µM
same,TGI,[10],36.8 µM
same,TGI,[13],22.3 µM
same,TGI,[14],32 µM
same,TGI,[15],35 µM
same,TGI,[16],25.3 µM
same,TGI,[17],> 100 µM
same,TGI,[18],41.8 µM
same,TGI,[19],23.5 µM
same,TGI,[20],34.7 µM
same,TGI,[21],25.7 µM
same,TGI,[22],40.8 µM
same,TGI,[23],41.9 µM
same,TGI,[24],46.3 µM
same,TGI,[25],> 100 µM
same,TGI,[26],53.8 µM
same,TGI,[27],66.2 µM
same,TGI,[28],> 100 µM
same,TGI,[29],62.5 µM
same,TGI,[31],79.2 µM
same,TGI,[32],25.9 µM
same,TGI,[33],54.6 µM
same,TGI,[34],27.4 µM
same,TGI,[35],34.5 µM
same,TGI,[36],30.8 µM
same,TGI,[37],34.6 µM
same,TGI,[38],25.7 µM
same,TGI,[39],> 100 µM
same,TGI,[40],18.8 µM
same,TGI,[41],> 100 µM
same,TGI,[42],59.1 µM
same,TGI,[43],84.2 µM
same,TGI,[44],51.1 µM
same,TGI,[45],72.7 µM
same,TGI,[46],61.7 µM
same,TGI,[47],21.6 µM
same,TGI,[48],47.5 µM
same,TGI,[49],70 µM
same,TGI,[50],> 100 µM
same,TGI,[59],18.9 µM
same,TGI,[52],65.3 µM
same,TGI,[53],61.2 µM
same,TGI,[54],98.3 µM
same,TGI,[55],> 100 µM
same,TGI,[56],> 100 µM
same,TGI,[57],36.4 µM
same,TGI,[58],10.5 µM
CC(=O)C(=C(c1ccccc1)c1ccccc1)c1ccccc1,TGI,[1],> 100 µM
same,TGI,[3],> 100 µM
same,TGI,[4],> 100 µM
same,TGI,[5],> 100 µM
same,TGI,[7],> 100 µM
same,TGI,[8],> 100 µM
same,TGI,[9],> 100 µM
same,TGI,[10],80.2 µM
same,TGI,[11],> 100 µM
same,TGI,[12],> 100 µM
same,TGI,[13],> 100 µM
same,TGI,[14],> 100 µM
same,TGI,[15],> 100 µM
same,TGI,[16],> 100 µM
same,TGI,[17],> 100 µM
same,TGI,[18],> 100 µM
same,TGI,[20],> 100 µM
same,TGI,[21],> 100 µM
same,TGI,[22],> 100 µM
same,TGI,[23],> 100 µM
same,TGI,[24],> 100 µM
same,TGI,[25],> 100 µM
same,TGI,[26],> 100 µM
same,TGI,[27],> 100 µM
same,TGI,[28],> 100 µM
same,TGI,[29],> 100 µM
same,TGI,[30],> 100 µM
same,TGI,[31],> 100 µM
same,TGI,[32],> 100 µM
same,TGI,[33],> 100 µM
same,TGI,[34],> 100 µM
same,TGI,[35],> 100 µM
same,TGI,[36],> 100 µM
same,TGI,[37],> 100 µM
same,TGI,[38],> 100 µM
same,TGI,[39],> 100 µM
same,TGI,[40],> 100 µM
same,TGI,[41],> 100 µM
same,TGI,[42],> 100 µM
same,TGI,[43],> 100 µM
same,TGI,[44],> 100 µM
same,TGI,[46],> 100 µM
same,TGI,[47],> 100 µM
same,TGI,[48],> 100 µM
same,TGI,[49],> 100 µM
same,TGI,[50],> 100 µM
same,TGI,[51],> 100 µM
same,TGI,[59],> 100 µM
same,TGI,[52],> 100 µM
same,TGI,[53],> 100 µM
same,TGI,[54],> 100 µM
same,TGI,[55],> 100 µM
same,TGI,[56],> 100 µM
same,TGI,[57],> 100 µM
same,TGI,[58],> 100 µM
